Source: US20240317683A1, “METHODS OF TREATING MOOD DISORDERS” (priority 2020, published 2024)
Counter-ions that a name gives are not always drawn.

Assays:
CYP1A2 = CYP1A2 (Homo sapiens (Human), UniProt P05177); assay: CYP inhibition in human liver microsomes, CYP1A2; assay type: in vitro ADME; conditions: for inhibition at 10 min, 10 µM: both sexes, human, pooled human liver microsomes, pH 7.4, probe phenacetin (10 μM), HLM, phenacetin substrate, read-out: CYP 1A2 % Inhibition at 10 μM
Experimental: (§1) HLM Incubations. Pooled HLM from adult male and female donors (Corning 452117) were used. Microsomal incubations were carried out in multi-well plates. Liver microsomal incubation aliquots contained 1) PBS (100 mM, pH 7.4), MgCl2 (3.3 mM), and NADPH (1 mM); 2) liver microsomal protein (0.2 mg/mL); 3) the reference CYP substrates: phenacetin for CYP1A2 (10 μM), diclofenac for CYP2C9 (5 μM), (S)-mephenytoin for CYP2C19 (30 μM), dextromethorphan for CYP2D6 (5 μM), and midazolam for CYP3A4 (2 μM); and 4) test compounds (10 μM), control inhibitors (3 μM α-naphthoflavone for CYP1A2, 3 μM sulfaphenazole for CYP2C9, 1 μM (+)-N-3-benzylnirvanol for 2C19, 3 μM quinidine for CYP2D6, or 3 μM ketoconazole for CYP3A4), or solvent (for uninhibited condition). Incubations were carried out at 37° C. with constant shaking for 10 minutes.
(§2) Sample Analysis. […] Percent inhibition by test compounds or control inhibitors was calculated by comparing the metabolite formation in the presence of the inhibitor compared to the metabolite formation in the absence of the inhibitor.

CYP2D6 = CYP2D6 (Homo sapiens (Human), UniProt P10635); assay: CYP inhibition in human liver microsomes, CYP2D6; assay type: in vitro ADME; conditions: for inhibition at 10 min, 10 µM: both sexes, human, pooled human liver microsomes, pH 7.4, probe dextromethorphan (5 μM), HLM, dextromethorphan substrate, read-out: CYP 2D6 % Inhibition at 10 μM
human 5-HT2C receptor = human 5-HT2C receptor (Homo sapiens (Human), UniProt P28335); assay: cell-based; assay type: cell-based; conditions: Ca2+ flux
CYP2C19 = CYP2C19 (Homo sapiens (Human), UniProt P33261); assay: CYP inhibition in human liver microsomes, CYP2C19; assay type: in vitro ADME; conditions: for inhibition at 10 min, 10 µM: both sexes, human, pooled human liver microsomes, pH 7.4, probe (S)-mephenytoin (30 μM), HLM, (S)-mephenytoin substrate, read-out: CYP 2C19 % Inhibition at 10 μM
Experimental: as §1, §2

rat synaptosomes = assay: Synaptosome 5-HT release assay; assay type: biochemical, Sprague-Dawley rats; conditions: for EC50: [3H]5-HT
Experimental: Synaptosome 5-HT Release Assay. Synaptosome release assays were conducted according to modifications of previously described procedures (Partilla et al. (2016). Interrogating the Activity of Ligands at Monoamine Transporters in Rat Brain Synaptosomes. In Neurotransmitter Transporters (pp. 41-52). Springer.). Briefly, synaptosomes were prepared from rat brains. Male Sprague-Dawley rats were rendered unconscious with CO2 and their brains were immediately removed. The cerebella were discarded and the whole brains (minus striatum) were placed in ice-cold 0.32 M sucrose (10 mL per brain) and gently homogenized by hand. The homogenate of each brain was centrifuged at 1,000× g at 4° C. for 10 mins and the resulting supernatant was diluted with ice-cold 0.32 M sucrose to a total volume of 10 mL to provide the synaptosome solution. Synaptosomes were then preloaded with 5 nM [^3H] 5-HT in the presence of selective uptake inhibitors of DAT (50 nM GBR12935), NET (100 nM nomifensine), and VMAT2 (1 μM reserpine) in Krebs phosphate buffer (KPB). The incubations were allowed to reach equilibrium for 2 h at 25° C. For the release reactions, 425 μL of preloaded synaptosomes were added to test tubes containing 75 μL of test drugs diluted in KPB containing 1 mg/mL BSA. After 10 mins, the release reaction was stopped using a cell harvester by rapid vacuum filtration over GF/B filter paper presoaked in wash buffer (10 mM Tris-HCl, pH 7.4, 150 mM NaCl) and the filters were washed with additional wash buffer. Filters were dried for 1 h at 60° C. and retained radioactivity was quantified using a MicroBeta 2 liquid scintillation counter. The amount of retained radioactivity was inversely proportional to the extent of release.

[1] = Pharmacokinetics in rats, plasma; assay type: in vivo; conditions: male, Sprague Dawley, rat plasma, SC
Experimental: (§3) Animals. Male Sprague Dawley rats, aged 8-12 weeks, were used in these studies. Four rats were housed in each cage. Temperature and humidity were maintained at 22±3° C. and 30-70%, respectively, and illumination was controlled to give a 12 h light and 12 h dark cycle. Temperature and humidity were recorded by an auto-controlled data logger system. All animals were provided laboratory rodent diet and were fasted for 4 h pre-dose and 2 h post-dose. Reverse osmosis water treated with ultraviolet light was provided ad libitum. Animals were randomly assigned to treatment groups.
(§4) Drugs. Compounds 4 and 5 were prepared as described above. Compound 6 was commercially obtained. Test compounds were used as the hydrogen fumarate (6) or hydrochloride (4 and 5) salts and were dissolved in a vehicle consisting of normal saline. They were then administered subcutaneously (SC) at a dose of 1 or 10 mg/kg (calculated based on the free base) and at a volume of 5 mL/kg body weight.
(§5) Sample Collection and Bioanalysis. Blood samples (approximately 120 μL) were collected under light isoflurane anesthesia (Surgivet®) from the retro orbital plexus at 0.08, 0.25, 0.5, 1, 2, 4, 8, and 24 h (4 animals per time point). Immediately after blood collection, plasma was harvested by centrifugation at 4,000 rpm for 10 min at 4° C. and samples were stored at −70±10° C. until bioanalysis. Following blood collection, animals were immediately sacrificed, the abdominal vena-cava was cut open, and the whole body was perfused from the heart using 10 mL of normal saline, and brain samples were collected from all animals. After isolation, brain samples were rinsed three times in ice-cold normal saline (for 5-10 seconds/rinse using ˜5-10 mL normal saline in disposable petri dish for each rinse) and dried on blotting paper. Brain samples were homogenized using ice-cold phosphate-buffered saline (pH 7.4). Total homogenate volume was three times the tissue weight. All homogenates were stored at −70±10° C. until bioanalysis. For bioanalysis, 25 μL aliquots of plasma/brain study samples or spiked plasma/brain calibration standards were added to individual pre-labeled micro-centrifuge tubes followed by 100 μL of an internal standard solution (glipizide, 500 ng/ml in acetonitrile) except for blanks, where 100 μL of acetonitrile was added. Samples were vortexed for 5 minutes and then centrifuged for 10 minutes at 4,000 rpm at 4° C. Following centrifugation, 100 μL of each clear supernatant was transferred to a 96 well plate and analyzed with a fit-for-purpose LC-MS/MS method, with authentic samples of each analyte used for calibration and identification.
(§6) Data Analysis. Pharmacokinetic parameters were estimated using the non-compartmental analysis tool of Phoenix® WinNonlin software (Ver 8.0).

[2] = Pharmacokinetics in rats, brain; assay type: in vivo, Sprague Dawley rats; conditions: rat brain, SC; for Cmax / Tmax / half-life: male, Sprague Dawley
Experimental: as §3, §4, §5, §6

CYP2C19, sequence (P33261 whole entry, looked up): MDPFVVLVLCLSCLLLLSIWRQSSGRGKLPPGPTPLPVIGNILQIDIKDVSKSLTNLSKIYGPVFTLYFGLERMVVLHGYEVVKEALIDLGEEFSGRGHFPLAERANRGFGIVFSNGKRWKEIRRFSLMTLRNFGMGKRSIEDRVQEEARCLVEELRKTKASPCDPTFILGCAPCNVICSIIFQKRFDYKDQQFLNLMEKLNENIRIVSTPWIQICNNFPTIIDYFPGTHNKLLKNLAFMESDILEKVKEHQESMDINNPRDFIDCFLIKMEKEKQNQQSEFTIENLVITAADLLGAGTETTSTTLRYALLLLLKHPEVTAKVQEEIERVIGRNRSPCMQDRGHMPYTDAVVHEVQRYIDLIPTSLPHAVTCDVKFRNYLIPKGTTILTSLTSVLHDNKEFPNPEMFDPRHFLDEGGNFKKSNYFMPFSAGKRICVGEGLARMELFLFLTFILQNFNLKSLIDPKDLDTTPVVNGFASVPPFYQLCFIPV
human 5-HT2C receptor, sequence (P28335 33-458 limits assumed): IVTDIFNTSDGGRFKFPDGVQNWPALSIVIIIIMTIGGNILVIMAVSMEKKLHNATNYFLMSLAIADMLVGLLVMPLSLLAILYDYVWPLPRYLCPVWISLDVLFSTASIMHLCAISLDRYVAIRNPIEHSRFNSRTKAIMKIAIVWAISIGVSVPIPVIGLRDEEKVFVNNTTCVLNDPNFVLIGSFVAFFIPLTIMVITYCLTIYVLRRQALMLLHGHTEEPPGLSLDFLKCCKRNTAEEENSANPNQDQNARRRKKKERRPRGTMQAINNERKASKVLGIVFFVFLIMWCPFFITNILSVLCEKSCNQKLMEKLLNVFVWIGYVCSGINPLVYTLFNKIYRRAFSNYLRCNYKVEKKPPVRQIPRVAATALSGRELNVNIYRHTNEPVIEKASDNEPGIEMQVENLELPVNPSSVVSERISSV
CYP1A2, sequence (P05177 whole entry, looked up): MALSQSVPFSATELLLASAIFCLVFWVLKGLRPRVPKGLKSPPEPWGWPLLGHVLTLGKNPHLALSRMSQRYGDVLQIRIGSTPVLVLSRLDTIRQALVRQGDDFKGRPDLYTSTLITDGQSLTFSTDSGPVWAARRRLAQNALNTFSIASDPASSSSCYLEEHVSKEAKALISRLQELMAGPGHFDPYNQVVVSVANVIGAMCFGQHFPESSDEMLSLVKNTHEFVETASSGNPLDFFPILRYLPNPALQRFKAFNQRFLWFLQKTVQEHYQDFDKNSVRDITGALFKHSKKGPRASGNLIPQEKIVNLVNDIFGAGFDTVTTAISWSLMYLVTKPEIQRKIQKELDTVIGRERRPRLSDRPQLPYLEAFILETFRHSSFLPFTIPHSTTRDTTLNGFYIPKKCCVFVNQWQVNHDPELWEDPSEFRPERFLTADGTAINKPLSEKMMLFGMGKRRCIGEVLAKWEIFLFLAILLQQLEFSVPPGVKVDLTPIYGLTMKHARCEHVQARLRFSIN
CYP2D6, sequence (P10635 whole entry, looked up): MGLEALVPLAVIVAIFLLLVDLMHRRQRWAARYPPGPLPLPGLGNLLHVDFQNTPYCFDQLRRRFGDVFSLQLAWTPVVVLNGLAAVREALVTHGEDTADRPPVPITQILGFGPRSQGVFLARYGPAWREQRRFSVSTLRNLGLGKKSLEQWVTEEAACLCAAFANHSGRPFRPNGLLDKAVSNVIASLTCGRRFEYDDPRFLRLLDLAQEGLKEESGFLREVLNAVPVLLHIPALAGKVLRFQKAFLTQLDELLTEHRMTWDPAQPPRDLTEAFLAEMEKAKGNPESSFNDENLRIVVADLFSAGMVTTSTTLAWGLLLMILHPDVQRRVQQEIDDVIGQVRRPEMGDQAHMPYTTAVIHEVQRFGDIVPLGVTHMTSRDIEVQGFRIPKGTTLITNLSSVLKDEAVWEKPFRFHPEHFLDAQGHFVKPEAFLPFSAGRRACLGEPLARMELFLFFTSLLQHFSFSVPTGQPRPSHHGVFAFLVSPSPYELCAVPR

CCCN(CC)CCc1c[nH]c2ccccc12 [Compound 1, ethylpropyltryptamine]
inhibition at 10 min, 10 µM (CYP1A2): 37.1% | inhibition at 10 min, 10 µM (CYP2D6): 58.6% | 5-HT2C % Act @ Max Dose (human 5-HT2C receptor): 90.8% | EC50 (human 5-HT2C receptor): 0.0334 µM | inhibition at 10 min, 10 µM (CYP2C19): 2.3%

CCN(C)CCc1c[nH]c2ccccc12 [Compound 2, methylethyltryptamine]
IC50 (CYP1A2): > 50 µM | inhibition at 10 min, 10 µM (CYP1A2): 0.5% | IC50 (CYP2D6): 31.5 µM | inhibition at 10 min, 10 µM (CYP2D6): 11.5% | % Release @ Max Dose (10 μM) (rat synaptosomes): 71% | EC50 (rat synaptosomes): 0.183 µM | 5-HT2C % Act @ Max Dose (human 5-HT2C receptor): 89.7% | IC50 (CYP2C19): > 50 µM | inhibition at 10 min, 10 µM (CYP2C19): 0%

CCCN(CC)CCc1c[nH]c2ccc(F)cc12 [Compound 3, N-ethyl-N-(2-(5-fluoro-1H-indol-3-yl)ethyl) propan-1-amine hydrochloride]
IC50 (CYP1A2): 8.4 µM | IC50 (CYP2D6): 1.9 µM | IC50 (CYP2C19): > 50 µM

CCN(C)CCc1c[nH]c2ccc(F)cc12 [Compound 4, N-ethyl-2-(5-fluoro-1H-indol-3-yl)-N-methylethan-1-amine hydrochloride]
IC50 (CYP1A2): > 50 µM | IC50 (CYP2D6): > 50 µM | AUC(0-t) ([1]; 1 mg/kg): 46.8 ng·h/mL | Cmax ([1]; 1 mg/kg): 41.3 ng/mL | Tmax ([1]; 1 mg/kg): 30 min | AUC(0-t) ([1]; 10 mg/kg): 499 ng·h/mL | Cmax ([1]; 10 mg/kg): 237 ng/mL | Tmax ([1]; 10 mg/kg): 60 min | % Release @ Max Dose (10 μM) (rat synaptosomes): 71.36% | EC50 (rat synaptosomes): 0.00843 µM | 5-HT2C % Act @ Max Dose (human 5-HT2C receptor): 85.13% | EC50 (human 5-HT2C receptor): 0.00946 µM | IC50 (CYP2C19): > 50 µM | Cmax ([2]; 1 mg/kg): 188 ng/g | Tmax ([2]; 1 mg/kg): 15 min | half-life ([2]; 1 mg/kg): 23.4 min | Cmax ([2]; 10 mg/kg): 2480 ng/g | Tmax ([2]; 10 mg/kg): 60 min | half-life ([2]; 10 mg/kg): 31.2 min | AUC0-last ([2]; 1 mg/kg): 197.70 ng·h/g | AUC0-last ([2]; 10 mg/kg): 4,710.96 h*ng/g

CN(C)CCc1c[nH]c2ccc(F)cc12 [Compound 5, 2-(5-fluoro-1H-indol-3-yl)-N,N-dimethylethan-1-amine hydrochloride]
AUC(0-t) ([1]; 10 mg/kg): 266 ng·h/mL | Cmax ([1]; 10 mg/kg): 243 ng/mL | Tmax ([1]; 10 mg/kg): 15 min | half-life ([1]; 10 mg/kg): 33 min | Cmax ([2]; 10 mg/kg): 275 ng/g | Tmax ([2]; 10 mg/kg): 15 min | half-life ([2]; 10 mg/kg): 23.4 min | AUC0-last ([2]; 10 mg/kg): 93.99 ng·h/g

CCN(C)CCc1c[nH]c2cccc(O)c12 [Compound 6]
IC50 (CYP1A2): > 50 µM | IC50 (CYP2D6): 48.5 µM | AUC(0-t) ([1]; 10 mg/kg): 3000 ng·h/mL | Cmax ([1]; 10 mg/kg): 624 ng/mL | Tmax ([1]; 10 mg/kg): 120 min | IC50 (CYP2C19): > 50 µM | Cmax ([2]; 10 mg/kg): 6160 ng/g | Tmax ([2]; 10 mg/kg): 120 min | half-life ([2]; 10 mg/kg): 125 min | AUC0-last ([2]; 10 mg/kg): 30,638.13 h*ng/g

CN(C)CCc1c[nH]c2ccccc12 [DMT, N,N-dimethyltryptamine, reference compound]
% Release @ Max Dose (10 μM) (rat synaptosomes): 80.77% | EC50 (rat synaptosomes): 0.0808 µM
